Measured values published in PubChem BioAssay (NCI).
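Step 1: Grow cells in 96-well plates. Step 2: Expose to compound for 48 hours at 5 concentrations. Step 3: Interpolate endpoints linearly; if unreached, use highest concentration. GI50 marks 50% less growth. TGI: total growth inhibition.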

Tests used:
Experiment in all cases: NCI tumour cell line growth inhibition, 48 h
MOLT-4 leukemia = tested on: MOLT-4 leukemia
NCI/ADR-RES ovarian = tested on: NCI/ADR-RES ovarian
HL-60(TB) leukemia = tested on: HL-60(TB) leukemia
CCRF-CEM leukemia = tested on: CCRF-CEM leukemia
HS 578T breast = tested on: HS 578T breast
RPMI-8226 leukemia = tested on: RPMI-8226 leukemia
UO-31 renal = tested on: UO-31 renal
SK-MEL-5 melanoma = tested on: SK-MEL-5 melanoma
MCF7 breast = tested on: MCF7 breast
MDA-MB-435 = tested on: MDA-MB-435
EKVX NSCLC = tested on: EKVX NSCLC
SR leukemia = tested on: SR leukemia
KM12 colon = tested on: KM12 colon
OVCAR-8 ovarian = tested on: OVCAR-8 ovarian
SF-268 CNS = tested on: SF-268 CNS
BT-549 breast = tested on: BT-549 breast
RXF 393 renal = tested on: RXF 393 renal
NCI-H226 lung = tested on: NCI-H226 lung
A549 NSCLC = tested on: A549 NSCLC
UACC-257 melanoma = tested on: UACC-257 melanoma
TK-10 renal = tested on: TK-10 renal
A498 renal = tested on: A498 renal
K-562 leukemia = tested on: K-562 leukemia
CAKI-1 renal = tested on: CAKI-1 renal
SW-620 colon = tested on: SW-620 colon
MDA-MB-231 breast = tested on: MDA-MB-231 breast
SK-MEL-2 melanoma = tested on: SK-MEL-2 melanoma
UACC-62 melanoma = tested on: UACC-62 melanoma
HCC-2998 colon = tested on: HCC-2998 colon
DU-145 prostate = tested on: DU-145 prostate
M14 melanoma = tested on: M14 melanoma
OVCAR-3 ovarian = tested on: OVCAR-3 ovarian
IGROV1 ovarian = tested on: IGROV1 ovarian
ACHN renal = tested on: ACHN renal
HCT-15 colon = tested on: HCT-15 colon
OVCAR-5 ovarian = tested on: OVCAR-5 ovarian
NCI-H23 lung = tested on: NCI-H23 lung
NCI-H522 lung = tested on: NCI-H522 lung
SN12C renal = tested on: SN12C renal
SF-295 CNS = tested on: SF-295 CNS
PC-3 prostate = tested on: PC-3 prostate
NCI-H460 lung = tested on: NCI-H460 lung
SF-539 CNS = tested on: SF-539 CNS
HOP-92 NSCLC = tested on: HOP-92 NSCLC
786-0 renal = tested on: 786-0 renal
SK-OV-3 ovarian = tested on: SK-OV-3 ovarian
HCT-116 colon = tested on: HCT-116 colon
SNB-19 CNS = tested on: SNB-19 CNS
HOP-62 NSCLC = tested on: HOP-62 NSCLC
LOX IMVI melanoma = tested on: LOX IMVI melanoma
COLO 205 colon = tested on: COLO 205 colon
SK-MEL-28 melanoma = tested on: SK-MEL-28 melanoma
MALME-3M melanoma = tested on: MALME-3M melanoma
U251 CNS = tested on: U251 CNS
T-47D breast = tested on: T-47D breast
OVCAR-4 ovarian = tested on: OVCAR-4 ovarian

NC(N)=Nc1ccc(-n2nc(C(F)(F)F)cc2-c2ccc3c(ccc4ccccc43)c2)cc1
GI50 (MOLT-4 leukemia): 2.35 µM
TGI (MOLT-4 leukemia): 4.92 µM
GI50 (NCI/ADR-RES ovarian): 3.14 µM
TGI (NCI/ADR-RES ovarian): 15.6 µM
GI50 (HL-60(TB) leukemia): 1.09 µM
TGI (HL-60(TB) leukemia): 2.82 µM
GI50 (CCRF-CEM leukemia): 2.05 µM
TGI (CCRF-CEM leukemia): 5.53 µM
GI50 (HS 578T breast): 1.59 µM
TGI (HS 578T breast): 4.34 µM
GI50 (RPMI-8226 leukemia): 2.16 µM
TGI (RPMI-8226 leukemia): 5.06 µM

NS(=O)(=O)c1ccc(-n2nc(-c3ccc(Cl)cc3)cc2C2=CC(=O)C=CC2=O)cc1
GI50 (MOLT-4 leukemia): > 100 µM
TGI (MOLT-4 leukemia): > 100 µM
GI50 (UO-31 renal): 41.7 µM
TGI (UO-31 renal): > 100 µM
GI50 (SK-MEL-5 melanoma): 18.2 µM
TGI (SK-MEL-5 melanoma): 43.5 µM
GI50 (MCF7 breast): 21.1 µM
TGI (MCF7 breast): 69.9 µM
GI50 (MDA-MB-435): 22.9 µM
TGI (MDA-MB-435): 67.1 µM
GI50 (EKVX NSCLC): 28.4 µM
TGI (EKVX NSCLC): 91.1 µM
GI50 (SR leukemia): 26.7 µM
TGI (SR leukemia): > 100 µM
GI50 (KM12 colon): 16 µM
TGI (KM12 colon): 36.1 µM
GI50 (OVCAR-8 ovarian): 24.2 µM
TGI (OVCAR-8 ovarian): 73.7 µM
GI50 (SF-268 CNS): 24.6 µM
TGI (SF-268 CNS): 50.4 µM
GI50 (BT-549 breast): 22.5 µM
TGI (BT-549 breast): 70.8 µM
GI50 (RXF 393 renal): 21.9 µM
TGI (RXF 393 renal): 46.7 µM
GI50 (NCI-H226 lung): 13.8 µM
TGI (NCI-H226 lung): 34.4 µM
GI50 (A549 NSCLC): 30 µM
TGI (A549 NSCLC): > 100 µM
GI50 (UACC-257 melanoma): 19.9 µM
TGI (UACC-257 melanoma): 42.9 µM
GI50 (TK-10 renal): 12.5 µM
TGI (TK-10 renal): 28.3 µM
GI50 (A498 renal): 22.8 µM
TGI (A498 renal): 70.2 µM
GI50 (K-562 leukemia): 19.4 µM
TGI (K-562 leukemia): 74.1 µM
GI50 (CAKI-1 renal): 25.2 µM
TGI (CAKI-1 renal): 48.5 µM
GI50 (NCI/ADR-RES ovarian): 27.2 µM
TGI (NCI/ADR-RES ovarian): 63.5 µM
GI50 (SW-620 colon): 19.8 µM
TGI (SW-620 colon): 48.3 µM
GI50 (MDA-MB-231 breast): 13.7 µM
TGI (MDA-MB-231 breast): 32 µM
GI50 (SK-MEL-2 melanoma): 58 µM
TGI (SK-MEL-2 melanoma): > 100 µM
GI50 (UACC-62 melanoma): 14.2 µM
TGI (UACC-62 melanoma): 34.1 µM
GI50 (HCC-2998 colon): 18.3 µM
TGI (HCC-2998 colon): 33 µM
GI50 (HL-60(TB) leukemia): 34 µM
TGI (HL-60(TB) leukemia): > 100 µM
GI50 (CCRF-CEM leukemia): 3.57 µM
TGI (CCRF-CEM leukemia): > 100 µM
GI50 (DU-145 prostate): 23.7 µM
TGI (DU-145 prostate): 87.5 µM
GI50 (M14 melanoma): 23 µM
TGI (M14 melanoma): 42.8 µM
GI50 (OVCAR-3 ovarian): 22.7 µM
TGI (OVCAR-3 ovarian): 42.9 µM
GI50 (IGROV1 ovarian): 39.6 µM
TGI (IGROV1 ovarian): > 100 µM
GI50 (ACHN renal): 20.8 µM
TGI (ACHN renal): 35.1 µM
GI50 (HS 578T breast): 23.8 µM
TGI (HS 578T breast): 72.6 µM
GI50 (HCT-15 colon): 16.1 µM
TGI (HCT-15 colon): 32.2 µM
GI50 (OVCAR-5 ovarian): 19.5 µM
TGI (OVCAR-5 ovarian): 46.1 µM
GI50 (NCI-H23 lung): 18 µM
TGI (NCI-H23 lung): 42.1 µM
GI50 (NCI-H522 lung): 31 µM
TGI (NCI-H522 lung): 87.2 µM
GI50 (SN12C renal): 19.7 µM
TGI (SN12C renal): 36.5 µM
GI50 (SF-295 CNS): 25.1 µM
TGI (SF-295 CNS): 63.2 µM
GI50 (RPMI-8226 leukemia): 6.86 µM
TGI (RPMI-8226 leukemia): 33.4 µM
GI50 (PC-3 prostate): 19.4 µM
TGI (PC-3 prostate): 56.2 µM
GI50 (NCI-H460 lung): 24.3 µM
TGI (NCI-H460 lung): 57.4 µM
GI50 (SF-539 CNS): 21.5 µM
TGI (SF-539 CNS): 45.4 µM
GI50 (HOP-92 NSCLC): 28 µM
TGI (HOP-92 NSCLC): > 100 µM
GI50 (786-0 renal): 19.8 µM
TGI (786-0 renal): 36 µM

CCCNc1nc(-c2ccc(OC)cc2)nc2ccccc12
GI50 (MOLT-4 leukemia): 46.4 µM
TGI (MOLT-4 leukemia): > 100 µM
GI50 (UO-31 renal): 19.1 µM
TGI (UO-31 renal): > 100 µM
GI50 (SK-MEL-5 melanoma): 12.5 µM
TGI (SK-MEL-5 melanoma): 27.7 µM
GI50 (SK-OV-3 ovarian): 18.9 µM
TGI (SK-OV-3 ovarian): 53 µM
GI50 (HCT-116 colon): 6.85 µM
TGI (HCT-116 colon): 27.7 µM
GI50 (MCF7 breast): 19.5 µM
TGI (MCF7 breast): > 100 µM
GI50 (MDA-MB-435): 14.5 µM
TGI (MDA-MB-435): 29.2 µM
GI50 (SR leukemia): 13.8 µM
TGI (SR leukemia): > 100 µM
GI50 (KM12 colon): 14.6 µM
TGI (KM12 colon): 30.8 µM
GI50 (OVCAR-8 ovarian): 25 µM
TGI (OVCAR-8 ovarian): 95 µM
GI50 (SF-268 CNS): 16.3 µM
TGI (SF-268 CNS): 38.8 µM
GI50 (SNB-19 CNS): 34.8 µM
TGI (SNB-19 CNS): > 100 µM
GI50 (HOP-62 NSCLC): 14.9 µM
TGI (HOP-62 NSCLC): 31.2 µM
GI50 (RXF 393 renal): 15.4 µM
TGI (RXF 393 renal): 35.5 µM
GI50 (NCI-H226 lung): 16.1 µM
TGI (NCI-H226 lung): 41.9 µM
GI50 (A549 NSCLC): 11.1 µM
TGI (A549 NSCLC): 49.6 µM
GI50 (TK-10 renal): 13.2 µM
TGI (TK-10 renal): 26.7 µM
GI50 (A498 renal): 11.9 µM
TGI (A498 renal): 25 µM
GI50 (LOX IMVI melanoma): 18.4 µM
TGI (LOX IMVI melanoma): 37.5 µM
GI50 (K-562 leukemia): > 100 µM
TGI (K-562 leukemia): > 100 µM
GI50 (CAKI-1 renal): 13.3 µM
TGI (CAKI-1 renal): 27.9 µM
GI50 (NCI/ADR-RES ovarian): 11 µM
TGI (NCI/ADR-RES ovarian): 36.2 µM
GI50 (COLO 205 colon): 19.9 µM
TGI (COLO 205 colon): > 100 µM
GI50 (SK-MEL-2 melanoma): 35.2 µM
TGI (SK-MEL-2 melanoma): > 100 µM
GI50 (UACC-62 melanoma): 15.4 µM
TGI (UACC-62 melanoma): 35.5 µM
GI50 (HCC-2998 colon): 13.6 µM
TGI (HCC-2998 colon): 34.4 µM
GI50 (SK-MEL-28 melanoma): 18.6 µM
TGI (SK-MEL-28 melanoma): 53.6 µM
GI50 (CCRF-CEM leukemia): 11.1 µM
TGI (CCRF-CEM leukemia): 68.3 µM
GI50 (DU-145 prostate): 14.3 µM
TGI (DU-145 prostate): 32.2 µM
GI50 (M14 melanoma): 10.6 µM
TGI (M14 melanoma): 24.7 µM
GI50 (MALME-3M melanoma): 15.1 µM
TGI (MALME-3M melanoma): 29.3 µM
GI50 (OVCAR-3 ovarian): 11.8 µM
TGI (OVCAR-3 ovarian): 26.9 µM
GI50 (IGROV1 ovarian): 24 µM
TGI (IGROV1 ovarian): > 100 µM
GI50 (U251 CNS): 16.7 µM
TGI (U251 CNS): 37.8 µM
GI50 (ACHN renal): 15.8 µM
TGI (ACHN renal): 33.3 µM
GI50 (HS 578T breast): 17.9 µM
TGI (HS 578T breast): 42.9 µM
GI50 (HCT-15 colon): 14.3 µM
TGI (HCT-15 colon): 31.9 µM
GI50 (T-47D breast): 31.4 µM
TGI (T-47D breast): > 100 µM
GI50 (OVCAR-5 ovarian): 16.4 µM
TGI (OVCAR-5 ovarian): 43 µM
GI50 (NCI-H23 lung): 18 µM
TGI (NCI-H23 lung): 45.9 µM
GI50 (NCI-H522 lung): 22.3 µM
TGI (NCI-H522 lung): > 100 µM
GI50 (SN12C renal): 20.2 µM
TGI (SN12C renal): 46.1 µM
GI50 (SF-295 CNS): 15.7 µM
TGI (SF-295 CNS): 32.2 µM
GI50 (RPMI-8226 leukemia): 3.96 µM
TGI (RPMI-8226 leukemia): 22.6 µM
GI50 (PC-3 prostate): 14.9 µM
TGI (PC-3 prostate): 46.5 µM
GI50 (NCI-H460 lung): 10.5 µM
TGI (NCI-H460 lung): 44 µM
GI50 (OVCAR-4 ovarian): 41 µM
TGI (OVCAR-4 ovarian): > 100 µM
GI50 (HOP-92 NSCLC): 9.06 µM
TGI (HOP-92 NSCLC): 29.3 µM
GI50 (786-0 renal): 13.7 µM
TGI (786-0 renal): 33 µM
